# According to US20140147410A1, “MICROBICIDE COMBINATIONS CONTAINING SILVER” (priority 2011, published 2014):
# Assays:
# Assay type in all cases: cell-based
# [1] = test system: Aspergillus niger ATCC# 16404; assay: HRMIC synergy test, mold; settings: A. niger, biocide alone
# Experimental: (§1) The combinations were evaluated for synergy by determining the synergy index (S.I.) of the combination. The Synergy index calculated is based on minimum inhibitory concentrations (MIC) of two biocides (A and B) alone and in combinations. The lower the S.I. value, the better the synergy. High Resolution Minimum Inhibitory Concentration (HRMIC) method was performed to determine the potential for synergy of the combinations. The tests organisms were gram negative bacteria (Pseudomonas aeruginosa), Gram positive bacteria (Staphylococcus aureus), yeast (Candida albicans) and mold (Aspergillus niger). Contact time for the bacteria was 24 and 48 hours, yeast was 48 and 72 hrs, 3 and 7 days for mold. The test was carried out in 96well microtiter plates. […] Ca/CA+Cb/CB=Synergy Index(“SI”) • CA=concentration of compound A in ppm, acting alone, which produced an end point (MIC of Compound A). • Ca=concentration of compound A in ppm, in the mixture, which produced an end point. • CB=concentration of compound B in ppm, acting alone, which produced an end point (MIC of Compound B). • Cb=concentration of compound B in ppm, in the mixture, which produced an end point. When the sum of Ca/CA and Cb/CB is greater than one, antagonism is indicated. […] [table] [table]
# [2] = test system: Staphylococcus aureus ATCC# 6538; assay: HRMIC synergy test, Gram positive bacteria; settings: S. aureus, biocide alone
# Experimental: as §1
# [3] = test system: Pseudomonas aeruginosa ATCC # 15442; assay: HRMIC synergy test, gram negative bacteria; settings: Ps. aeruginosa, contact time 24 hrs, biocide alone
# Experimental: as §1
# [4] = test system: Candida albicans ATCC#10203; assay: HRMIC synergy test, yeast; settings: C. albicans, biocide alone
# Experimental: as §1
smiles,measurement,setting,value
"Cc1ccc(S(=O)(=O)C(I)I)cc1 [DIMTS, diiodomethyl-p-tolylsulfone]",MIC alone (CA / CB),[1]; contact time 3rd day,0.3 ppm AI
same,MIC alone (CA / CB),[1]; contact time 7th day,0.5 ppm AI
same,MIC alone (CA / CB),[2]; contact time 24 hrs,30 ppm AI
same,MIC alone (CA / CB),[2]; contact time 48 hrs,400 ppm AI
same,MIC alone (CA / CB),[3],>1000 ppm AI
same,MIC alone (CA / CB),[4]; contact time 48 hrs,20 ppm AI
same,MIC alone (CA / CB),[4]; contact time 72 hrs,30 ppm AI
